B1: basic-cJun (other)
chain: MRIKAERKRMRNRIAASKCRKRKLERIARLEEKVKTLKAQNYELASTANMLREQVAQLGAPHHHHHH
notes: also called AP-1 component; p230d-basic-cJun

Columns and labels:
[1] = system: BL21 GOLD cells; assay: Aβ1-42 dimerization assay (colony growth); format: cell-based, E. coli; details: for colonies grown on test plates: M9 minimal media with Tmp and IPTG; for colonies grown on negative control plates: M9 minimal media with Tmp; for No. of colonies (CFU): 48-hour incubation
Source text: Schematic illustrating general principles of using the TBS assay to screen for inhibitors of the initial dimerization event of Aβ1-42. In bacterial cells, endogenous DHFR can be inhibited using the antibiotic trimethoprim, making cells reliant on the modified, exogenous DHFR (top panel). In this setting, if AP-1 binds to the TRE sites in the DHFR, transcription is blocked and no functional DHFR enzyme is produced, resulting in cell death (middle panel). By attaching this basic cJun region to Aβ1-42, a functional DNA binder will be created if two Aβ1-42 peptides dimerize. In the absence of an inhibitor, basic-Aβ1-42 dimerization would lead to blocking of the DHFR gene transcription, resulting in cell death (lower left hand panel). Only cells treated with a successful Aβ1-42 dimerization inhibitor would produce DHFR and so survive, allowing selection for potential therapeutics for treating Alzheimer's Disease (lower right hand panel).
BL21 GOLD cells stably expressing a pREP4 plasmid containing lac inhibitor […] gene were used for the dimerization assay, so that the lac operon could be controlled. Cells were transformed with p300d plasmid containing DHFR with 15 TRE sites under control of the lac operon (described in Example 1), and either a p230d containing Aβ1-42 or constructed basic-Aβ1-42.
BL21 from the 100 μL plates were scraped into LB and selecting antibiotics and grown to an OD600 of 0.5. 100 μL of culture was plated onto positive control, negative control and test plates, as described in Table 3 below.
A covering of cells was seen on both positive control plates, showing that BL21 cells were not affected by scraping and re-plating. Tmp was used to inhibit the endogenous, E. coli DHFR enzyme. […] Two basic-Aβ1-42 expressing colonies and one Aβ1-42 colony grew on these negative control plates. Test plates contained IPTG to bind to lac repressor protein and allow expression of the modified DHFR in the bacteria. There were 63 Aβ1-42 expressing BL21 colonies formed on these plates, which confirmed that the modified DHFR gene allows cells to grow on minimal media. Importantly, only 2 basic-Aβ1-42 expressing colonies grew on test plates, which was consistent with levels of background growth seen on negative control plates.

[2] = system: TRE's introduced within the mDHFR gene; assay: Transcription-Block Survival (TBS) assay with basic-cJun; format: cell-based, E. coli; details: M9 minimal media with Tmp and IPTG, protein overexpressed on second plasmid with mDHFR containing 15 TREs
Source text: Fifteen TREs have been introduced into the mDHFR gene. A) The changes to the DNA sequence result in a fully active protein that expresses, folds, and confers survival in M9 minimal media using trimethoprim (TMP) to inhibit bacterial DHFR. […] Expressing mDHFR with IPTG (right hand side plates), generates colonies in A) but not B).
It was next necessary to establish that introduction of an AP-1 component (in this case basic-cJun) would result in binding to the 15 TRE's introduced within the mDHFR gene and therefore failure of the gene to be transcribed.
Three plasmids were used for this assay. These are i) p300-mDHFR (Cm; SEQ ID NO: 42) to express the […] sequence containing mDHFR, which is under control of the lac-operon; ii) p230d-basic-cJun (Amp; SEQ ID NO: 43) which is also under control of the lac-operon; iii) pREP4 (Kan; SEQ ID NO: 44) to express the lac repressor.
Cells were grown under non-selective conditions (i.e. LB/LB agar) containing Cm/Amp/Kan up until the time of the Assay. During TBS Selection Cells are grown in M9 minimal media (Agar or Broth) in the presence of Cm/Amp/Kan, as well as Tmp (to inhibit the bacterial copies of DHFR) and IPTG (to induce expression of mDHFR and bZIP proteins). […]

[3] = molecular target: the molecule itself; assay: TBS cell survival assay in E. coli, colony formation on M9 agar
Protocol: Cells were grown under non-selective conditions (i.e. LB/LB agar) containing Cm/Amp/Kan up until the time of the Assay. During TBS Selection Cells are grown in M9 minimal media (Agar or Broth) in the presence of Cm/Amp/Kan, as well as Tmp (to inhibit the bacterial copies of DHFR) and IPTG (to induce expression of mDHFR and bZIP proteins). During Assay selection, media-lacking ITPG is used to serve as a negative control to ensure that cell survival is exclusively driven by the loss on interaction between bZIP target protein and the consensus sequences located within the mDHFR gene.

[4] = Negative control plate: M9 minimal agar, 3.4 μM Tmp, no IPTG
[5] = Positive control plate: LB agar, Cm, Kan and Amp
[6] = Test plate: M9 minimal agar, 3.4 μM Tmp, 1 mM IPTG

Molecule	colonies grown on test plates [1] [colonies]	colonies grown on negative control plates ([1]; no IPTG)	No. of colonies (CFU) [1, 4] [CFU]	No. of colonies (CFU) [1, 5]	No. of colonies (CFU) [1, 6] [CFU]	bacterial colony formation in minimal media [2]	bacterial colony formation in minimal media ([2]; listed as Basic-cJun)	binding result [3]
Aβ1-42: amyloid-β peptide having 42 amino acids (SEQ ID NO: 49), expressed without the basic cJun region [reference compound]	63	one	1	Covered	63			
basic-Aβ1-42: fusion protein of the basic cJun region and Aβ1-42 (SEQ ID NO: 51)	2	Two	2	Covered	2			
B1						complete loss of bacterial colonies	no colonies grow	binds

— patent US20230146038A1, “DIMERIZATION ASSAY” (The University of Bath, priority 2020, published 2023)
